Results reported in patent publication US20250099420A1, “SMALL MOLECULE MODULATORS OF GPR139 COMPLEX” (University of Florida Research Foundation, Incorporated, priority 2022, published 2025).
Where two headings read alike, the source gives them in different places.

How the values were obtained:
GPR139 = target: T1, GPR139 (Homo sapiens, UniProt Q6DWJ6); experiment: GPR139 Agonist titration / agonist counterscreen assay (calcium detection, HEK-GPR139 cells); assay type: cell-based; design: expressed in transfected cells; host or cells: HEK Aequorin cells, Maxcyte transient transfection; conditions: GPR139 Agonist Activity; for Averaged Max % Response (±St. Dev.): activity relative to known control; for EC50: read-out: EC50
T1 sequence (Q6DWJ6 1-353): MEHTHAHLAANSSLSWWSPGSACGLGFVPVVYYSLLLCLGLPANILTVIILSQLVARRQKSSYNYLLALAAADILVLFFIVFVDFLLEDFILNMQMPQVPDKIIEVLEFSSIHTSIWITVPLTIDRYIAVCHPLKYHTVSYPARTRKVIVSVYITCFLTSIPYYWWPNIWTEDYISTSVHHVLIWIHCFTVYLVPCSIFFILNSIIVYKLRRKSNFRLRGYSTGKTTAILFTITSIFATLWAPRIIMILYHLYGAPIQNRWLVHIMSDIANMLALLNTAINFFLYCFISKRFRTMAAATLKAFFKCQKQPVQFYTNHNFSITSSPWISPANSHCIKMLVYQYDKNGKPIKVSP
Protocol: GPR activity was assessed using a calcium detection assay. […] Negative control samples were treated with DMSO. […] Intracellular calcium was measured using Calcium 5.

parental HEK cells = experiment: HEK parental Agonist Counterscreen Assay (non-transfected cells); assay type: cell-based; conditions: for Averaged Max % Response (±St. Dev.): activity relative to known control
Excerpt: The high control for the agonist counterscreen was Forskolin not acetylcholine.

[1] = values printed in E-notation without unit
[2] = Homo sapiens, HEK293, HEK Agonist Activity, parental non-transfected HEK cells
[3] = Homo sapiens, HEK293, HEK Agonist Activity section of Table 4 (parental HEK counterscreen)
[4] = HEK Agonist Activity section of Table 4 (parental HEK counterscreen)

Structure (SMILES) | Averaged Max % Response (±St. Dev.) (GPR139) [%] | Lipophilic Efficiency (logD) (GPR139; based on logD) | Lipophilic Efficiency (logP) (GPR139; based on logP) | Hill Slope (GPR139; fitted dose-response curve) | Efficiency Ligand (GPR139; ligand efficiency) | EC50 (GPR139; [1]) [nM] | Lipophilic Efficiency (logD) (parental HEK cells; HEK Agonist Activity) | Lipophilic Efficiency (logP) (parental HEK cells; HEK Agonist Activity) | Averaged Max % Response (±St. Dev.) (parental HEK cells; HEK Agonist Activity) [%] | EC50 (parental HEK cells; [2]) [µM] | Efficiency Ligand (GPR139) | Hill Slope (GPR139) | Lipophilic Efficiency (logD) (GPR139) | Lipophilic Efficiency (logP) (GPR139) | Lipophilic Efficiency (logD) (parental HEK cells; HEK Agonist Activity section) | Lipophilic Efficiency (logP) (parental HEK cells; HEK Agonist Activity section) | Averaged Max % Response (±St. Dev.) (parental HEK cells; HEK Agonist Activity section) [%] | EC50 (parental HEK cells; [3]) [µM] | EC50 (GPR139; HEK-GPR139 cells) [nM] | EC50 (parental HEK cells; [4]) [µM]
COc1cccc(C(=O)NNC(=O)C(C)Oc2ccc(Cl)cc2Cl)c1 (centres unmarked) [SR-01000356497] | 126.50 ± 10.38 | 4.97 | 4.94 | 0.32 | 0.47 | 4.9 | 1.52 | 1.48 | 2.54 ± 3.30 | > 14.1 | – | – | – | – | – | – | – | – | – | –
Cc1[nH]c(=O)[nH]c(=O)c1/C=N\NC(=O)CCc1ccc(OC(C)C)cc1 [SR-01000357697] | 87.67 ± 13.61 | – | – | – | – | – | – | – | – | – | 0.31 | 1.75 | 4.74 | 4.74 | 3.76 | 3.76 | −2.06 ± 7.71 | > 14.1 | – | –
COc1ccc(C(=O)NNC(=O)COc2ccc(Cl)cc2Cl)cc1OC [SR-01000357814] | 103.91 ± 10.30 | 4.04 | 3.99 | 0.77 | 0.36 | 231 | – | – | – | – | – | – | – | – | 2.25 | 2.21 | 7.60 ± 11.41 | > 14.1 | – | –
COc1cc(OC)cc(C(=O)NNC(=O)C(C)Oc2ccc(Cl)cc2Cl)c1 (centres unmarked) [SR-01000358013] | 146.26 ± 17.42 | 4.56 | 4.52 | 0.21 | 0.40 | – | 1.68 | 1.64 | 22.28 ± 14.14 | > 14.1 | – | – | – | – | – | – | – | – | – | –
COc1cc(OC)cc(C(=O)NNC(=O)COc2cc(C)c(Cl)c(C)c2)c1 [SR-01000358286] | 88.73 ± 9.49 | – | – | – | – | – | – | – | – | – | 0.31 | 1.77 | 2.95 | 2.95 | 1.79 | 1.78 | 17.27 ± 10.49 | – | 971 | > 14.1
CC(CCC(=O)C12CC3CC(CC(C3)C1)C2)CCc1ccc2ccccc2c1 (centres unmarked) [SR-01000359546] | 116.44 ± 14.37 | – | – | – | – | – | – | – | – | – | 0.30 | 0.53 | 2.60 | 2.60 | 1.36 | 1.36 | 3.46 ± 3.80 | > 14.1 | – | –
COc1cc(OC)cc(C(=O)NNC(=O)CCc2ccccc2)c1 [SR-01000359572] | 100.90 ± 10.01 | – | – | – | – | – | – | – | – | – | 0.37 | 0.98 | 4.18 | 4.18 | 2.65 | 2.65 | 6.12 ± 4.61 | > 14.1 | 418 | –
CCCCCCC(=O)NNC(=O)c1c(O)c2ccccc2n(CCC)c1=O [SR-01000360839] | 57.17 ± 6.17 | – | – | – | – | – | – | – | – | – | 0.28 | 1.91 | 4.95 | 3.13 | 4.41 | 2.59 | 0.18 ± 6.80 | – | 4100 | > 14.1
